{"source": "ChEMBL document CHEMBL1201862", "about": "“PubChem BioAssay data set” (2004)", "key": {"[1]": {"biological_target": "T1, Heat shock factor protein 1 (Mus musculus, UniProt P38532)", "T1 sequence (P38532 whole entry)": "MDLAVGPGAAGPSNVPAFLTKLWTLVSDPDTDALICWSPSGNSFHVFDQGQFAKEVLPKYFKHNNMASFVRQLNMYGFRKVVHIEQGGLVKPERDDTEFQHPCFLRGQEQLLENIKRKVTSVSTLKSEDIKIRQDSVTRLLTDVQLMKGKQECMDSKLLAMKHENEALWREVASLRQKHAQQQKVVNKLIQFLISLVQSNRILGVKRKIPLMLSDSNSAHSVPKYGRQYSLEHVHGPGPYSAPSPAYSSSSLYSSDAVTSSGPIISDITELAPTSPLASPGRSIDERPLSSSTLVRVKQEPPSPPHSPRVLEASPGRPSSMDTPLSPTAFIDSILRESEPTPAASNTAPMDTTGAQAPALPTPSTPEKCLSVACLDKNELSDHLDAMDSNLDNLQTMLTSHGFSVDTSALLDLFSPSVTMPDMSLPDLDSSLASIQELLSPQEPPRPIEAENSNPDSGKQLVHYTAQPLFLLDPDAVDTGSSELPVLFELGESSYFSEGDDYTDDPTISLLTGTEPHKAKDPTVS", "assay": "decrease of HSF1-responsive luciferase luminescence – cell-based, NIH3T3, dose retest, confirmation (AID 2382);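 further: NIH3T3 fibroblasts with HSF1-driven luciferase reporter stressed by proteasome inhibitor MG132; luminescence from HSF1-driven luciferase expression after 8 hours of MG132 stress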", "type": "functional"}, "Cytochrome P450 2C19": {"biological_target": "Cytochrome P450 2C19 (Homo sapiens, UniProt P33261)", "sequence (P33261 whole entry)": "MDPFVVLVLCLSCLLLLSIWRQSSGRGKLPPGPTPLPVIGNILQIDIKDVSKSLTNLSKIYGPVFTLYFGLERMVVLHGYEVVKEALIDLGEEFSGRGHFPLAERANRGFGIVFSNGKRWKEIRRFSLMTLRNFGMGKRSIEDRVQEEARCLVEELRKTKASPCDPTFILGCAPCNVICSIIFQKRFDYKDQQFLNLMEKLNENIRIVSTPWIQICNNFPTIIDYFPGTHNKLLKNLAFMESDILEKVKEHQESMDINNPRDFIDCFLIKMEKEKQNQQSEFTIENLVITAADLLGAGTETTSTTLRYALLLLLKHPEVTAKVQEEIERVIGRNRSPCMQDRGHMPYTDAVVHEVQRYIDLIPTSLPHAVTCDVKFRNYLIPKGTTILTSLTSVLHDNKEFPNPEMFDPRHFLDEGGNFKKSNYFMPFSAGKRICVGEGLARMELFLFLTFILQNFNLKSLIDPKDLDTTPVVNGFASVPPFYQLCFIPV", "assay": "Cytochrome panel assay with activity outcomes. Panel member name: p450-cyp2c19 Compounds with AC50 equal or less than 10 uM are considered active", "type": "functional"}, "Cytochrome P450 1A2": {"biological_target": "T2, Cytochrome P450 1A2 (Homo sapiens, UniProt P05177)", "T2 sequence (P05177 whole entry)": "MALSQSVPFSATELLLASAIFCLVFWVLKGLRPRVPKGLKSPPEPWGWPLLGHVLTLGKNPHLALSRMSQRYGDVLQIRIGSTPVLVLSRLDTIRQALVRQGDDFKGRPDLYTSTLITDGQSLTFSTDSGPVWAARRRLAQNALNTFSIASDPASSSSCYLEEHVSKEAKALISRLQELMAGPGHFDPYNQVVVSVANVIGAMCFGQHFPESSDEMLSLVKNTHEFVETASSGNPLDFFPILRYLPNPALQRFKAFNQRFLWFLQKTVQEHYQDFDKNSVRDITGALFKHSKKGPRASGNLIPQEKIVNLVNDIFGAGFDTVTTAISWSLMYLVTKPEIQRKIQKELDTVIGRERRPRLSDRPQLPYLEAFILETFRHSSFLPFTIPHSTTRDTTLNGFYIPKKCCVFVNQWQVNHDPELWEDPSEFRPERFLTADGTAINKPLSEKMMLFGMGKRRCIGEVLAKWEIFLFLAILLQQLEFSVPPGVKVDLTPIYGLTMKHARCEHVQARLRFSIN"}, "Cytochrome P450 2C9": {"biological_target": "Cytochrome P450 2C9 (Homo sapiens, UniProt P11712)", "sequence (P11712 whole entry)": "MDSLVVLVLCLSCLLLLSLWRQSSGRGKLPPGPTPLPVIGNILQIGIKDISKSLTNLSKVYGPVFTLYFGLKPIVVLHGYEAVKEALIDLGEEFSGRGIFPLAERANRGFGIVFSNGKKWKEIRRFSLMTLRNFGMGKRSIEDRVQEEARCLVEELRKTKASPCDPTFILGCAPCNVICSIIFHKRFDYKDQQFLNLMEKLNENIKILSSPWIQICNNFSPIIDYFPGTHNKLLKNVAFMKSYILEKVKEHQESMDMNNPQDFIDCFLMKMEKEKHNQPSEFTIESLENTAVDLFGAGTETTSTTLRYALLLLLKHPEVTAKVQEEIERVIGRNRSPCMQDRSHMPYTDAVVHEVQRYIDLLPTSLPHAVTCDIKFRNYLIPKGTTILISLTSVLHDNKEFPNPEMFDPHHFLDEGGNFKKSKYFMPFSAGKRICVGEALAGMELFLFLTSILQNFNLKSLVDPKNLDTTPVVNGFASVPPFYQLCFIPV"}, "[2]": {"tested_on": "Streptococcus sp. 'group A'", "assay": "Streptococcus pyogenes SK(-)GAS viability under kanamycin – luminescence, BacTiterGlo, confirmation, counter-screen for streptokinase expression inhibitor project, dose response (AID 1900)", "type": "functional, organism-based"}, "Streptokinase A": {"biological_target": "T3, Streptokinase A (Streptococcus pyogenes serotype M1, UniProt P10520)", "T3 sequence (P10520 whole entry)": "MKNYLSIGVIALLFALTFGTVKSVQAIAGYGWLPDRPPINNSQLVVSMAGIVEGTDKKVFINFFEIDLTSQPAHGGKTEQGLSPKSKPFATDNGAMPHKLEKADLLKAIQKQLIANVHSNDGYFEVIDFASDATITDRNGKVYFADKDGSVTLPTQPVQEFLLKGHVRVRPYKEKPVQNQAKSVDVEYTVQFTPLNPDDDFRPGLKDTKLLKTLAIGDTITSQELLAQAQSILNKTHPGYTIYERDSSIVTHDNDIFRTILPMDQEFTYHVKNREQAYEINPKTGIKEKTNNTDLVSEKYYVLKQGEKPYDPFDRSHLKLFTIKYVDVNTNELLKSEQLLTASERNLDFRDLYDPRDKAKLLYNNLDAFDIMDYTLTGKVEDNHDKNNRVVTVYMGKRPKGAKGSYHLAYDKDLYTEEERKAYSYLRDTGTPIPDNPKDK", "assay": "viability-normalized secreted streptokinase activity reduction – plasminogen activation absorbance, OD405, dose response (AID 1914);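 further: secreted streptokinase activity via plasminogen activation per viability signal from cell pellet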", "type": "functional, Streptococcus pyogenes M1 GAS"}, "Streptococcus": {"tested_on": "Streptococcus", "assay": "GAS UMAA2166 growth inhibition – luminescence, BacTiterGlo, counter-screen for streptokinase expression inhibitor project, dose response (AID 1915);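 further: potency for reduction of bacterial viability or growth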", "type": "functional, organism-based"}, "Cytochrome P450 2D6": {"biological_target": "Cytochrome P450 2D6 (Homo sapiens, UniProt P10635)", "sequence (P10635 whole entry)": "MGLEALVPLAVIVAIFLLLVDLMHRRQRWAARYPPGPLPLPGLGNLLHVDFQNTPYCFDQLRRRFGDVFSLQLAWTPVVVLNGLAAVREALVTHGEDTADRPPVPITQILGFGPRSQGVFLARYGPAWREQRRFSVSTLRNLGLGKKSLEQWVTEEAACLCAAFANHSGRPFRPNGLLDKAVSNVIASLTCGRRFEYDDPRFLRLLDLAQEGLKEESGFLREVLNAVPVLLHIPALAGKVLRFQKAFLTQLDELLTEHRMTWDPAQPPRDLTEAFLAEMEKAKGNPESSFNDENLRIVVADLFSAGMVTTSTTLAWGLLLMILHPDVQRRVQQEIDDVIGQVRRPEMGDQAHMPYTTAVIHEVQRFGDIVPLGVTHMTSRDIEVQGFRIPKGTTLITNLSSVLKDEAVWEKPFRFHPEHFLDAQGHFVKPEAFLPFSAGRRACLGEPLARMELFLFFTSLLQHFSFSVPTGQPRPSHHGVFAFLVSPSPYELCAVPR"}, "Cytochrome P450 3A4": {"biological_target": "Cytochrome P450 3A4 (Homo sapiens, UniProt P08684)", "sequence (P08684 whole entry)": "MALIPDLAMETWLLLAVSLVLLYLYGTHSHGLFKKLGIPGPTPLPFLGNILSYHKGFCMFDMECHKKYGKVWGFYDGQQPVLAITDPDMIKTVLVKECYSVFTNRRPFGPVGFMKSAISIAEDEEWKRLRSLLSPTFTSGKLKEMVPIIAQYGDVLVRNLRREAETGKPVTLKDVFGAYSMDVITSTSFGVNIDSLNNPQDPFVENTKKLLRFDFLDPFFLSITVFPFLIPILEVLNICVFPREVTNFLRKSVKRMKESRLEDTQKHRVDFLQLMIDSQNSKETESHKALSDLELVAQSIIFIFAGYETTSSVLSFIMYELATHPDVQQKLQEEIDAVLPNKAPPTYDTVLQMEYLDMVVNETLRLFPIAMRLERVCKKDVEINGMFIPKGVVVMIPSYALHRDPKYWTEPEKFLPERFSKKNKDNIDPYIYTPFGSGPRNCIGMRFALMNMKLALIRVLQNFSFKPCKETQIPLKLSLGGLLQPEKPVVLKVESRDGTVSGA"}, "[3]": {"assay": "Luminescence Cell-Based Dose Response HTS to Identify Activators of Luciferase Translation or Activity in H4 […] Cells. [Related pubchem assays: 1829 (Project Summary), 1814 (Primary HTS)]", "type": "functional"}, "[4]": {"assay": "Luminescence Cell-Based Dose Confirmation HTS to Identify Activators of 5'UTR Stem-Loop Driven Alpha-Synuclein mRNA Translation in H4 Neuroglioblastoma Cells. [Related pubchem assays: 1829 (Project Summary), 1814 (Primary HTS)]", "type": "functional"}, "H4": {"tested_on": "H4", "assay": "Luminescence Cell-Based Dose Response HTS to Identify Activators of 5'UTR Stem-Loop Driven Prion Protein mRNA Translation in H4 Neuroglioblastoma Cells. [Related pubchem assays: 1829 (Project Summary), 1814 (Primary HTS)]", "type": "functional", "details": "Homo sapiens"}}, "note": "Values joined by “and” are separate entries in the source; they are usually repeats but may differ in a detail not shown here. Equal entries are not always repeated. Active and inactive are the calls of the source.", "data": [{"smiles": "COC(=O)[C@H](C)NC(=O)NCCC1=CCCCC1", "values": [{"measurement": "EC50", "setting": "[1]", "result": "> 195 µM (not active)"}]}, {"smiles": "Cc1ccccc1N1CCN(C(=O)c2ccccc2NC(=O)/C=C\\C(=O)O)CC1", "values": [{"measurement": "AC50", "setting": "Cytochrome P450 2C19; read-out: AC50", "result": "28.2 µM (inconclusive)"}]}, {"smiles": "OC1/C(=C/c2ccccc2C(F)(F)F)N2CCC1CC2", "note": "(stereo not drawn)", "values": [{"measurement": "EC50", "setting": "[1]", "result": "> 195 µM (not active)"}]}, {"smiles": "N[C@@H](C(=O)O)c1ccc(P(=O)(O)O)cc1", "values": [{"measurement": "AC50", "setting": "Cytochrome P450 1A2", "result": "20 µM (inconclusive)"}, {"measurement": "AC50", "setting": "Cytochrome P450 2C9", "result": "31.6 µM (inconclusive)"}]}, {"smiles": "Cc1ccc(/C=C2/Sc3ccc(C(=O)N4CCN(C)CC4)cc3NC2=O)cc1", "values": [{"measurement": "EC50", "setting": "[2]", "result": "7.17 µM (active)"}, {"measurement": "EC50", "setting": "Streptokinase A", "result": "> 150 µM (not active)"}, {"measurement": "EC50", "setting": "Streptococcus", "result": "14.2 µM (active)"}]}, {"smiles": "Sc1nnc(-c2ccncc2)n1Cc1ccco1", "values": [{"measurement": "EC50", "setting": "[1]", "result": "> 195 µM (not active)"}]}, {"smiles": "CCOC(=O)C(=NC(C)(C)C)NNc1cc(Cl)ccc1Cl", "values": [{"measurement": "EC50", "setting": "[2]", "result": "4.52 µM (active)"}, {"measurement": "EC50", "setting": "Streptokinase A", "result": "7.59 µM (active)"}, {"measurement": "EC50", "setting": "Streptococcus", "result": "21.1 µM (active)"}]}, {"smiles": "CCn1c(O)c(C(c2ccccn2)c2c(O)n(CC)c(=S)[nH]c2=O)c(=O)[nH]c1=S", "values": [{"measurement": "AC50", "setting": "Cytochrome P450 2C9", "result": "31.6 µM (inconclusive)"}, {"measurement": "AC50", "setting": "Cytochrome P450 2C19; read-out: AC50", "result": "0.00562 µM (inconclusive)"}]}, {"smiles": "O=C(NCCCN1CCC(Cc2ccccc2)CC1)C1CC(=O)N(C2CCCC2)C1", "note": "(stereo not drawn)", "values": [{"measurement": "EC50", "setting": "[1]", "result": "> 195 µM (not active)"}]}, {"smiles": "CC(=O)C1C(c2ccccc2OC(F)F)NC(=O)NC1(O)C(F)(F)F", "note": "(stereo not drawn)", "values": [{"measurement": "AC50", "setting": "Cytochrome P450 1A2", "result": "5.01 µM (inconclusive)"}, {"measurement": "AC50", "setting": "Cytochrome P450 2C9", "result": "15.8 µM (inconclusive)"}]}, {"smiles": "COc1ccc(N2CCN(C(=O)c3cccc(Br)c3)CC2)c([N+](=O)[O-])c1", "values": [{"measurement": "EC50", "setting": "[1]", "result": "> 195 µM (not active)"}]}, {"smiles": "COc1cccc(-c2cccc(NC(=O)C3CCN(Cc4ccon4)CC3)c2)c1", "values": [{"measurement": "EC50", "setting": "[1]", "result": "> 195 µM (not active)"}]}, {"smiles": "COc1ccc2c(c1O)-c1cccc3c1[C@H](C2)N(C)CC3", "values": [{"measurement": "AC50", "setting": "Cytochrome P450 2D6", "result": "31.6 µM (inconclusive)"}, {"measurement": "AC50", "setting": "Cytochrome P450 3A4", "result": "15.8 µM (inconclusive)"}, {"measurement": "AC50", "setting": "Cytochrome P450 2C19; read-out: AC50", "result": "7.94 µM (inconclusive)"}]}, {"smiles": "COc1ccccc1N1CCN(C(c2ccc(N(C)C)cc2)c2nnnn2CCc2ccccc2)CC1", "note": "(stereo not drawn)", "values": [{"measurement": "EC50", "setting": "[1]", "result": "> 195 µM (not active)"}]}, {"smiles": "COc1ccc(C2N(c3ccccn3)C(=O)C3CCCN32)c(OC)c1", "note": "(stereo not drawn)", "values": [{"measurement": "AC50", "setting": "Cytochrome P450 1A2", "result": "0.00631 µM (inconclusive)"}, {"measurement": "AC50", "setting": "Cytochrome P450 3A4", "result": "22.4 µM (inconclusive)"}, {"measurement": "AC50", "setting": "Cytochrome P450 2C19; read-out: AC50", "result": "28.2 µM (inconclusive)"}]}, {"smiles": "Oc1ccccc1/C=N/NC(=S)NC1CC2CCC1C2", "note": "(stereo not drawn)", "values": [{"measurement": "EC50", "setting": "[2]", "result": "4.8 µM (active)"}, {"measurement": "EC50", "setting": "Streptokinase A", "result": "> 150 µM (not active)"}, {"measurement": "EC50", "setting": "Streptococcus", "result": "8.53 µM (active)"}]}, {"smiles": "Cc1nc2ccccc2c(=O)n1/N=C1\\C(=O)N(C)c2ccccc21", "values": [{"measurement": "EC50", "setting": "[3]", "result": "12.6 µM (active)"}, {"measurement": "EC50", "setting": "[4]", "result": "> 120 µM (not active)"}, {"measurement": "EC50", "setting": "H4", "result": "> 120 µM (not active)"}]}, {"smiles": "CC(C)c1c(C(=O)N/N=C/c2cccc(OCc3ccc(F)cc3)c2)nnn1-c1nonc1N", "values": [{"measurement": "EC50", "setting": "[2]", "result": "4.9 µM (active)"}, {"measurement": "EC50", "setting": "Streptokinase A", "result": "2.1 µM (active)"}, {"measurement": "EC50", "setting": "Streptococcus", "result": "23.1 µM (active)"}]}, {"smiles": "CC(C)CC(=O)O/N=C1\\C(=O)N(c2ccccc2)c2ccccc21", "values": [{"measurement": "AC50", "setting": "Cytochrome P450 1A2", "result": "3.55 µM (inconclusive)"}, {"measurement": "AC50", "setting": "Cytochrome P450 2C9", "result": "6.31 µM (inconclusive)"}, {"measurement": "AC50", "setting": "Cytochrome P450 2C19; read-out: AC50", "result": "5.62 µM (inconclusive)"}]}, {"smiles": "COc1ccc(C/C(C)=N/NC(=S)Nc2ccccc2F)cc1", "values": [{"measurement": "EC50", "setting": "[1]", "result": "96.9 µM (active)"}]}, {"smiles": "S=C(N/N=C/c1ccc(Br)cc1)N1CCCCC1", "values": [{"measurement": "EC50", "setting": "[3]", "result": "0.174 µM (active)"}, {"measurement": "EC50", "setting": "H4", "result": "96.7 µM (active)"}]}, {"smiles": "O=C(O)[C@H]1CN[C@H](C(=O)O)C1", "values": [{"measurement": "AC50", "setting": "Cytochrome P450 2D6", "result": "39.8 µM (inconclusive)"}, {"measurement": "AC50", "setting": "Cytochrome P450 1A2", "result": "31.6 µM (inconclusive)"}, {"measurement": "AC50", "setting": "Cytochrome P450 2C19", "result": "inconclusive"}]}, {"smiles": "CC1=NN=C(c2ccc(N)cc2)c2cc3c(cc2C1)OCO3", "note": "[GYKI-52466]", "values": [{"measurement": "AC50", "setting": "Cytochrome P450 2D6", "result": "25.1 µM (inconclusive) and 31.6 µM (inconclusive)"}, {"measurement": "AC50", "setting": "Cytochrome P450 1A2", "result": "31.6 µM (inconclusive)"}]}, {"smiles": "CCN(CC)CCOC(=O)[C@@H](Cc1cccc2ccccc12)C[C@@H]1CCCO1", "note": "[NAFTIDROFURYL]", "values": [{"measurement": "AC50", "setting": "Cytochrome P450 2D6", "result": "5.01 µM (inconclusive)"}, {"measurement": "AC50", "setting": "Cytochrome P450 1A2", "result": "10 µM (inconclusive)"}]}]}
